From PMC8330742, “New benzothieno[2,3-c]pyridines as non-steroidal CYP17 inhibitors: design, synthesis, anticancer screening, apoptosis induction, and in silico ADME profile studies” (Journal of Enzyme Inhibition and Medicinal Chemistry, 2021)

Columns and labels:
COLO 205 = experiment: NCI-60 SRB screen; format: cell-based, human; details: Homo sapiens; COLO 205; single dose 10^−5 M; read-out: Growth inhibition (%)
EKVX = experiment: NCI-60 SRB screen; format: cell-based, human; details: Homo sapiens, single dose 10^−5 M, read-out: Growth inhibition (%)
HT-29 = experiment: NCI-60 SRB screen; format: cell-based; details: Homo sapiens; HT-29; single dose 10^−5 M; read-out: Growth inhibition (%)
CAKI-1 = experiment: NCI-60 SRB screen; format: cell-based, human; details: Homo sapiens; CAKI-1; single dose 10^−5 M; read-out: Growth inhibition (%)
[1] = test system: panel of 60 cancer cell lines; experiment: NCI-60 SRB screen, mean or range over the panel; format: cell-based, human; details: Homo sapiens; mean over the cell lines; single dose 10^−5 M; read-out: Mean growth inhibition (%)
M14 = experiment: NCI-60 SRB screen; format: cell-based, human; details: Homo sapiens; M14; single dose 10^−5 M; read-out: Growth inhibition (%)
SK-OV-3 = experiment: NCI-60 SRB screen; format: cell-based, human; details: Homo sapiens; SK-OV-3; single dose 10^−5 M; read-out: Growth inhibition (%)
ACHN = experiment: NCI-60 SRB screen; format: cell-based; details: Homo sapiens, single dose 10^−5 M, read-out: Growth inhibition (%)
NCI-H322M = experiment: NCI-60 SRB screen; format: cell-based, human; details: Homo sapiens, single dose 10^−5 M, read-out: Growth inhibition (%)
UACC-62 = experiment: NCI-60 SRB screen; format: cell-based, human; details: Homo sapiens; UACC-62; single dose 10^−5 M; read-out: Growth inhibition (%)
LOX IMVI = experiment: NCI-60 SRB screen; format: cell-based, human; details: Homo sapiens, single dose 10^−5 M, read-out: Growth inhibition (%)
NCI/ADR-RES = experiment: NCI-60 SRB screen; format: cell-based, human; details: Homo sapiens, single dose 10^−5 M, read-out: Growth inhibition (%)
OVCAR-4 = experiment: NCI-60 SRB screen; format: cell-based, human; details: Homo sapiens; OVCAR-4; single dose 10^−5 M; read-out: Growth inhibition (%)
MOLT-4 = experiment: NCI-60 SRB screen; format: cell-based; details: Homo sapiens; MOLT-4; single dose 10^−5 M; read-out: Growth inhibition (%)
786-0 = experiment: NCI-60 SRB screen; format: cell-based; details: Homo sapiens; 786-0; single dose 10^−5 M; read-out: Growth inhibition (%)
HCT-15 = experiment: NCI-60 SRB screen; format: cell-based, human; details: Homo sapiens; HCT-15; single dose 10^−5 M; read-out: Growth inhibition (%)
CCRF-CEM = experiment: NCI-60 SRB screen; format: cell-based; details: Homo sapiens, single dose 10^−5 M, read-out: Growth inhibition (%)
HCT-116 = experiment: NCI-60 SRB screen; format: cell-based, human; details: Homo sapiens; HCT-116; single dose 10^−5 M; read-out: Growth inhibition (%)
MALME-3M = experiment: NCI-60 SRB screen; format: cell-based, human; details: Homo sapiens, single dose 10^−5 M, read-out: Growth inhibition (%)
SN12C = experiment: NCI-60 SRB screen; format: cell-based, human; details: Homo sapiens, SN12C; SN 12 C; single dose 10^−5 M; read-out: Growth inhibition (%)
HOP-62 = experiment: NCI-60 SRB screen; format: cell-based, human; details: Homo sapiens; HOP-62; single dose 10^−5 M; read-out: Growth inhibition (%)
HL-60(TB) = experiment: NCI-60 SRB screen; format: cell-based, human; details: Homo sapiens; HL-60 (TB); single dose 10^−5 M; read-out: Growth inhibition (%)
SK-MEL-28 = experiment: NCI-60 SRB screen; format: cell-based; details: Homo sapiens; SK-MEL-28; single dose 10^−5 M; read-out: Growth inhibition (%)
UACC-257 = experiment: NCI-60 SRB screen; format: cell-based, human; details: Homo sapiens, UACC-257; UACC-275 (so in the source); single dose 10^−5 M; read-out: Growth inhibition (%)
NCI-H226 = experiment: NCI-60 SRB screen; format: cell-based, human; details: Homo sapiens; NCI-H226; single dose 10^−5 M; read-out: Growth inhibition (%)
NCI-H23 = experiment: NCI-60 SRB screen; format: cell-based, human; details: Homo sapiens; NCI-H23; single dose 10^−5 M; read-out: Growth inhibition (%)
TK-10 = experiment: NCI-60 SRB screen; format: cell-based, human; details: Homo sapiens; TK-10; single dose 10^−5 M; read-out: Growth inhibition (%)
SF-295 = experiment: NCI-60 SRB screen; format: cell-based, human; details: Homo sapiens; SF-295; single dose 10^−5 M; read-out: Growth inhibition (%)
RXF 393 = experiment: NCI-60 SRB screen; format: cell-based, human; details: Homo sapiens; RXF 393; single dose 10^−5 M; read-out: Growth inhibition (%)
A549/ATCC = experiment: NCI-60 SRB screen; format: cell-based, human; details: Homo sapiens, single dose 10^−5 M, read-out: Growth inhibition (%)
SF-268 = experiment: NCI-60 SRB screen; format: cell-based, human; details: Homo sapiens; SF-268; single dose 10^−5 M; read-out: Growth inhibition (%)
SK-MEL-2 = experiment: NCI-60 SRB screen; format: cell-based, human; details: Homo sapiens; SK-MEL-2; single dose 10^−5 M; read-out: Growth inhibition (%)
NCI-H522 = experiment: NCI-60 SRB screen; format: cell-based, human; details: Homo sapiens; NCI-H522; single dose 10^−5 M; read-out: Growth inhibition (%)
K-562 = experiment: NCI-60 SRB screen; format: cell-based, human; details: Homo sapiens, K562; K-562; single dose 10^−5 M; read-out: Growth inhibition (%)
OVCAR-3 = experiment: NCI-60 SRB screen; format: cell-based, human; details: Homo sapiens; OVCAR-3; single dose 10^−5 M; read-out: Growth inhibition (%)
IGROV1 = experiment: NCI-60 SRB screen; format: cell-based, human; details: Homo sapiens, IGROV-1; IGROV1; single dose 10^−5 M; read-out: Growth inhibition (%)
KM12 = experiment: NCI-60 SRB screen; format: cell-based, human; details: Homo sapiens; KM12; single dose 10^−5 M; read-out: Growth inhibition (%)
HOP-92 = experiment: NCI-60 SRB screen; format: cell-based, human; details: Homo sapiens; HOP-92; single dose 10^−5 M; read-out: Growth inhibition (%)
HCC-2998 = experiment: NCI-60 SRB screen; format: cell-based, human; details: Homo sapiens; HCC-2998; single dose 10^−5 M; read-out: Growth inhibition (%)
UO-31 = experiment: NCI-60 SRB screen; format: cell-based, human; details: Homo sapiens; UO-31; single dose 10^−5 M; read-out: Growth inhibition (%)
SK-MEL-5 = experiment: NCI-60 SRB screen; format: cell-based, human; details: Homo sapiens; SK-MEL-5; single dose 10^−5 M; read-out: Growth inhibition (%)
SW-620 = experiment: NCI-60 SRB screen; format: cell-based; details: Homo sapiens; SW-620; single dose 10^−5 M; read-out: Growth inhibition (%)
NCI-H460 = experiment: NCI-60 SRB screen; format: cell-based, human; details: Homo sapiens; NCI-H460; single dose 10^−5 M; read-out: Growth inhibition (%)
OVCAR-8 = experiment: NCI-60 SRB screen; format: cell-based, human; details: Homo sapiens; OVCAR-8; single dose 10^−5 M; read-out: Growth inhibition (%)

Compound `COc1ccc(C=C2Sc3c(F)cccc3C2=O)c(OC)c1` [Compound 2a, 2-(2,4-Dimethoxybenzylidene)-7-fluoro[1]benzothiophen-3(2H)-one] has an inhibition at 10 µM (COLO 205) of -16%, an inhibition at 10 µM (EKVX) of -5.71% and an inhibition at 10 µM (HT-29) of -9.18%. For the same compound, the inhibition at 10 µM (CAKI-1) was 11.9%, the inhibition at 10 µM [1] was -3.74% and the inhibition at 10 µM (M14) was -5.61%. The inhibition at 10 µM (SK-OV-3) was 6.36%, the inhibition at 10 µM (ACHN) was -4.06% and the inhibition at 10 µM (NCI-H322M) was 0.25%. It also gave an inhibition at 10 µM (UACC-62) of 7.33%, an inhibition at 10 µM (LOX IMVI) of -0.02% and an inhibition at 10 µM (NCI/ADR-RES) of -3.61%. The inhibition at 10 µM (OVCAR-4) was -6.44%, the inhibition at 10 µM (MOLT-4) was 4.1% and the inhibition at 10 µM (786-0) was -12.2%. The inhibition at 10 µM (HCT-15) was -9.73%, the inhibition at 10 µM (CCRF-CEM) was -5.14% and the inhibition at 10 µM (HCT-116) was -3.66%. For the same compound, the inhibition at 10 µM (MALME-3M) was 4.19%, the inhibition at 10 µM (SN12C) was -0.73% and the inhibition at 10 µM (HOP-62) was 5.99%. For the same compound, the inhibition at 10 µM (HL-60(TB)) was 11%, the inhibition at 10 µM (SK-MEL-28) was -7.93% and the inhibition at 10 µM (UACC-257) was -15.2%. It also gave an inhibition at 10 µM (NCI-H226) of 0.31%, an inhibition at 10 µM (NCI-H23) of -4.04% and an inhibition at 10 µM (TK-10) of -34.9%. The inhibition at 10 µM (SF-295) was -4.69%, the inhibition at 10 µM (RXF 393) was -27.9% and the inhibition at 10 µM (A549/ATCC) was -7.82%. It also gave an inhibition at 10 µM (SF-268) of 4.51%, an inhibition at 10 µM (SK-MEL-2) of -17.9% and an inhibition at 10 µM (NCI-H522) of 6.14%. The inhibition at 10 µM (K-562) was 4.76%, the inhibition at 10 µM (OVCAR-3) was -7.34% and the inhibition at 10 µM (IGROV1) was 0.46%. For the same compound, the inhibition at 10 µM (KM12) was -5.55%, the inhibition at 10 µM (HOP-92) was -8.14% and the inhibition at 10 µM (HCC-2998) was -12.8%. For the same compound, the inhibition at 10 µM (UO-31) was 25%, the inhibition at 10 µM (SK-MEL-5) was -2.91% and the inhibition at 10 µM (SW-620) was -4.67%. The inhibition at 10 µM (NCI-H460) was -6.08% and the inhibition at 10 µM (OVCAR-8) was -4.32%.

Work on `O=C1C(=Cc2ccccc2[N+](=O)[O-])Sc2c(F)cccc21` [Compound 2c, 7-Fluoro-2-(2-nitrobenzylidene)[1]benzothiophen-3(2H)-one] yielded an inhibition at 10 µM (COLO 205) of -6.61%, an inhibition at 10 µM (EKVX) of 15.6% and an inhibition at 10 µM (HT-29) of -7.17%. It also gave an inhibition at 10 µM (CAKI-1) of 85.1%, an inhibition at 10 µM [1] of 11.5% and an inhibition at 10 µM (M14) of -1.11%. The inhibition at 10 µM (SK-OV-3) was 2.42%, the inhibition at 10 µM (ACHN) was 7.28% and the inhibition at 10 µM (NCI-H322M) was 1.98%. The inhibition at 10 µM (UACC-62) was 60.9%, the inhibition at 10 µM (LOX IMVI) was 11.1% and the inhibition at 10 µM (NCI/ADR-RES) was 13.5%. The inhibition at 10 µM (OVCAR-4) was 40.5%, the inhibition at 10 µM (MOLT-4) was 19.8% and the inhibition at 10 µM (786-0) was -11%. For the same compound, the inhibition at 10 µM (HCT-15) was -1.05%, the inhibition at 10 µM (CCRF-CEM) was 26.3% and the inhibition at 10 µM (HCT-116) was 80.5%. The inhibition at 10 µM (MALME-3M) was 12.6%, the inhibition at 10 µM (SN12C) was 7.57% and the inhibition at 10 µM (HOP-62) was 20.4%. It also gave an inhibition at 10 µM (HL-60(TB)) of 28.8%, an inhibition at 10 µM (SK-MEL-28) of -4.83% and an inhibition at 10 µM (UACC-257) of 78.8%. The inhibition at 10 µM (NCI-H226) was 23.5%, the inhibition at 10 µM (NCI-H23) was 13.3% and the inhibition at 10 µM (TK-10) was -30.9%. The inhibition at 10 µM (SF-295) was 27%, the inhibition at 10 µM (RXF 393) was -3.1% and the inhibition at 10 µM (A549/ATCC) was 4.91%. It also gave an inhibition at 10 µM (SF-268) of 5.43%, an inhibition at 10 µM (SK-MEL-2) of -9.11% and an inhibition at 10 µM (NCI-H522) of 2.94%. It also gave an inhibition at 10 µM (K-562) of 67.8%, an inhibition at 10 µM (OVCAR-3) of 70.8% and an inhibition at 10 µM (IGROV1) of 66.5%. The inhibition at 10 µM (KM12) was 3.27%, the inhibition at 10 µM (HOP-92) was -11.4% and the inhibition at 10 µM (HCC-2998) was -11.4%. The inhibition at 10 µM (UO-31) was 29.9%, the inhibition at 10 µM (SK-MEL-5) was 8.44% and the inhibition at 10 µM (SW-620) was 68.8%. The inhibition at 10 µM (NCI-H460) was 59.2% and the inhibition at 10 µM (OVCAR-8) was 6.75%.
